Measurements published in patent publication US7597692B2, “Microscission processes and procedures” (Massachusetts Institute of Technology, priority 2000, dated 2009).

Tested on: Subject B site (forearm microconduit)
Test: Lidocaine applied on forearm microconduit site, anesthetic effect (Example 3)
Format: in vivo, human
Conditions: 3% lidocaine applied on Subject B microconduit site

SMILES: CCN(CC)CC(=O)Nc1c(C)cccc1C [lidocaine]
- anesthetic effects: No discernible anesthetic effects were observed
